The source of these data is US12545677B2, “Compounds useful as factor XIa inhibitors” (JANSSEN PHARMACEUTICA NV, priority 2020, dated 2026).

One may read the IC50 as the concentration that inhibits the measured activity by half. Read a low IC50 as greater potency in that assay.

In this experiment the target is T1, HERG current (Homo sapiens, UniProt Q12809).
T1 construct: expressed in transfected cells; host or cells: HEK293
In words: hERG assay, whole-cell voltage clamp in HEK293 cells. Type of experiment: cell-based. As to conditions: HEK293 with stable transfection of HERG, 5 minutes of drug application. The text has this: Biological Example 6: hERG Assay
HERG (human ether-à-go-go-related gene) encodes a potassium channel with biophysical properties similar to the rapidly activating delayed-rectifier K^+ current (IKr) in cardiac myocytes. This IKr current contributes to the K^+ current responsible for the repolarization phase of the cardiac action potential. Blockage of this current may prolong action potential duration and cause long QT-syndrome. The development of QT prolongation can lead to the occurrence of ventricular arrhythmias such as Torsades de Pointes, which can result in sudden death. […]
Electrophysiological measurements: The membrane current of the cells was measured at distinct membrane potentials with the patch clamp technique by means of an EPC-9 patch clamp amplifier. […] The HERG current (K+-selective outward current) was determined as the maximal tail current at −40 mV after a 2 second depolarization to +60 mV. […] Thereafter test pulses were given for 5 minutes to quantify the HERG current in control conditions. […] The effect of the test compound was measured after 5 minutes of drug application. […]
Measurements: The HERG current was determined as the maximal tail current at −40 mV after a 2 second depolarization to +60 mV, starting from a holding potential of −80 mV. […]
A general note: hERG is a cardiac potassium channel; its block is linked to QT prolongation.

T1 sequence (Q12809 whole entry): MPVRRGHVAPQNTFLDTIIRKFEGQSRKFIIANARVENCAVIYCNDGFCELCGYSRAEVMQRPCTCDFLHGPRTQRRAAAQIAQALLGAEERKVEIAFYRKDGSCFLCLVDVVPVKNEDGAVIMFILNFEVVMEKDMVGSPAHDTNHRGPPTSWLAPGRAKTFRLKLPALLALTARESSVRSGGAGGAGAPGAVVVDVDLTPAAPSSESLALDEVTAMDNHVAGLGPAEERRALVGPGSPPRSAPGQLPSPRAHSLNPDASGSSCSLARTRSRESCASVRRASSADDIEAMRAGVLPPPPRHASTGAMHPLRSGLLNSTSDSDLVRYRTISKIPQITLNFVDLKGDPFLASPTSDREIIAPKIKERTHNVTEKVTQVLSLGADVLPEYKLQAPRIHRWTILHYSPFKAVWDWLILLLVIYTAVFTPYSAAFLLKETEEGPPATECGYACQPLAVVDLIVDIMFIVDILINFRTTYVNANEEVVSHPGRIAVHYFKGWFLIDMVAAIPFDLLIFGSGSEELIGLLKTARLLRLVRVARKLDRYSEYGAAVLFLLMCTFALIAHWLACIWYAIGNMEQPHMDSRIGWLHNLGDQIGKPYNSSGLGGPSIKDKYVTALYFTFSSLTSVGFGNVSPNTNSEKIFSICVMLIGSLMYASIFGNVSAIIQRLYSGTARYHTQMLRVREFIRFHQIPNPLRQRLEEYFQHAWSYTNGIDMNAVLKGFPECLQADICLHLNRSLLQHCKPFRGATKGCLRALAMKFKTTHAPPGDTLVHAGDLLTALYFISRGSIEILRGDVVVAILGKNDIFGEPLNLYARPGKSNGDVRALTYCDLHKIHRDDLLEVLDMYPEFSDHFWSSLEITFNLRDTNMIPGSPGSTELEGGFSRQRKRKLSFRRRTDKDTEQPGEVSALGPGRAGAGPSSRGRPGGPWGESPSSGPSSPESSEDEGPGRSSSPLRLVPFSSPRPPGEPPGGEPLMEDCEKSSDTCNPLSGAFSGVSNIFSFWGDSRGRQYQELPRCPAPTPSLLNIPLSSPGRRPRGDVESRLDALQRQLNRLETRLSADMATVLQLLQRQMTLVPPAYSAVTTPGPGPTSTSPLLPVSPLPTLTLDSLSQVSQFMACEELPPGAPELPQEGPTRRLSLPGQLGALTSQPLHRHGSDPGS

In turn, `O=C1C=C(c2c(-n3cnnn3)ccc(Cl)c2F)C[C@H]2CC[C@@H](c3ncc(-c4ccnc(CO)c4F)[nH]3)N12` [Compound of formula (I-A), (3S,8aR)-7-(3-Chloro-2-fluoro-6-(1H-tetrazol-1-yl)phenyl)-3-(5-(3-fluoro-2-(hydroxymethyl)pyridin-4-yl)-1H-imidazol-2-yl)-2,3,8,8a-tetrahydroindolizin-5(1H)-one] displayed an IC50 greater than 30 µM.
